{"source": "paper PMC4725915", "about": "“Ruthenium(II) Complexes with 2-Phenylimidazo[4,5-f][1,10]phenanthroline Derivatives that Strongly Combat Cisplatin-Resistant Tumor Cells” (Scientific Reports, 2016)", "key": {"[1]": {"assay": "Distribution coefficient (log Po/w), flask-shaking, n-octanol/phosphate buffer", "assay_type": "physicochemical", "conditions": "n-octanol / phosphate buffer pH 7.4, 37 °C; in words only (Figure S8)", "description": "Distribution coefficients (log Po/w) were determined by liquid-liquid extraction between n-octanol (oil) and phosphate buffers (0.2 M, pH 7.4) with the flask-shaking method. N-Octanol and the buffer were mutually saturated with each other for at least 24 h before use. An aliquot of a ruthenium complex stock solution was added to the phosphate buffer concentrations at <10 mg/mL, and the mixture was shaken at 100 rpm for 24 h at 37 °C to allow for adequate partitioning. After the sample was centrifuged at 3000 rpm for 20 min, the aqueous layer was used for ruthenium analysis, and the Ru content in the aqueous layer was measured by ICP-MS and used to calculate the log Po/w."}, "[2]": {"test_system": "A549R cells", "assay": "Mitochondrial membrane potential (JC-1)", "assay_type": "cell-based, human", "conditions": "different concentrations (0.5, 1.0, 2.0 μM), 24 h", "description": "Mitochondria are the principal organelles related to energy metabolism and ATP synthesis; consequently, resistance against chemotherapeutic drugs can often be traced to the mitochondria. […] Mitochondrial dysfunction is involved in apoptotic cell death, and the loss of mitochondrial membrane potential (MMP, ΔΨm) is a hallmark of mitochondrial dysfunction. […] Confocal microscopy and flow cytometry were used to confirm whether complex 4-induced apoptosis occurred by damaging mitochondria, and the cationic dye JC-1 was used as the MMP-sensitive probe.\nA549R cells were cultured in 6-well tissue culture plates for 24 h and treated with complex 4 (0.5, 1.0 and 2.0 μM) for 24 h. After the treatment, the cells were collected and resuspended at 1 × 10^6 cells/mL in a pre-warmed staining working solution containing JC-1 (5 μg/mL) and incubated for 15 min at 37 °C. Subsequently, the cells were washed twice with pre-warmed PBS and analyzed immediately with a flow cytometer on a FACS Canto II (BD Biosciences, USA). Red and green mean fluorescence intensities were analyzed using FlowJo 7.6 software (Tree Star, OR, USA). […] After the treatment described above, the stained cells were visualized under an inverted fluorescence microscope (Zeiss Axio Observer D1). JC-1 fluorescence was measured with single excitation (488 nm) and dual emission (shift from green 530 nm to red 590 nm)."}, "[3]": {"test_system": "A549R cells", "assay": "Real-time cell growth and proliferation assay (xCELLigence)", "assay_type": "cell-based, human", "description": "In addition, a real-time cell growth and proliferation assay using an xCELLigence System was utilized to confirm the high toxicity of complex 4 on A549R cells. […] In contrast, A549R cells were killed by treatment with complex 4 in a concentration-dependent manner.\nThis experiment was performed using an xCELLigence RTCA DP system real time cell analyzer (Roche Diagnostics GmbH, Germany). In brief, 80 μL of cell culture media was added to each well of a 16-well plate (E-plate 16, Roche Diagnostics GmbH, Germany). The 16-well plates were then connected to the system and checked for suitable electrical contacts in the real time cell analyzer, and the background impedance was measured for 24 s. Meanwhile, the A549R cells were suspended in cell culture medium and adjusted to 5 × 10^4 cells/mL, and 100 μL of each cell suspension was added to each well of […]. Approximately 24 h after seeding, the A549R cells were in the logarithmic phase of growth, and a wide range of concentrations of complex 4 and cisplatin (100 μM) were added. The cells were automatically monitored every 15 min over 48 h by the xCELLigence system. Data were analyzed using RTCA software (version 1.2) that was supplied with the instrument."}, "[4]": {"test_system": "A549R cells", "assay": "Cell uptake study by ICP-MS", "assay_type": "cell-based, human", "conditions": "A549R, 2.0 μM, 12 h", "description": "To understand the high sensitivity of cancer cells to Ru(II) complexes, the extent of cellular uptake was investigated with inductively coupled plasma mass spectrometry (ICP-MS) by treating the HeLa, A549, A549R and LO2 cell lines with 2.0 μM concentrations of the Ru(II) complexes and cisplatin for 12 h. […] In this study, the cellular uptake and lipophilicity were distinctly correlated and followed the order: 4 >3 >2 >1. Complex 4 had the best accumulation, but the amount of Ru in LO2 cells was far less than that in the three cancer lines, indicating selective accumulation and improved efficiency for treating cancer. Cisplatin was taken up more efficiently by the sensitive cell line (A549) than by the cisplatin-resistant cell line (A549R). […] However, less than 1.5% of the cellular platinum was accumulated in the mitochondrial fraction of the A549R cells. Therefore, complex 4 could function in a different manner than cisplatin in A549R cells, which would be an appropriate solution to combat cisplatin resistance in tumor cells.\nThe cells were plated at a density of 1 × 10^5 cells/mL in 10 mL of DMEM for 24 h at 37 °C under 5% CO2 and 20% O2, Ruthenium complexes (2.0 μM) and cisplatin were added to the culture medium and incubated for 12 h, and mixed with cold PBS and a trypsin-EDTA solution in a centrifuge tube for counting. Then, the nuclei and cytoplasm of the cells were extracted by using a Nuclear and Cytoplasmic Protein Extraction Kit (Life Technologies). The samples were digested in 20% HNO3 and 10% H2O2 at room temperature overnight. Each sample was then diluted with Milli-Q water to obtain 2% HNO3 sample solutions. Ruthenium contents were determined using inductively coupled plasma mass spectrometry (ICP-MS Thermo Elemental Co., Ltd.)."}, "[5]": {"test_system": "A549R", "assay": "MTT cytotoxicity assay, cisplatin-resistant A549R", "assay_type": "cell-based, human", "conditions": "48 h, mean ± SD of three experiments", "description": "(§1) Compounds 1–4 were evaluated against three tumor cell lines derived from different tissues, including the cervix (HeLa), lung (A549) and cisplatin-resistant lung (A549R) tissues. For comparison, the cytotoxicity of cisplatin was also evaluated. As a control, the toxicities of the complexes were also tested against the normal human cell line (LO2).\n(§2) The human cervix carcinoma cell line (HeLa), the lung carcinoma cell lines (A549 and A549R), and the human hepatocyte cell line (LO2) were obtained from the Experimental Animal Center at Sun Yat-Sen University (Guangzhou, China). The cells were maintained in Dulbecco’s modified Eagle’s medium (DMEM, Gibco BRL) or Roswell Park Memorial Institute 1640 (RPMI 1640, Gibco BRL) medium supplemented with 10% fetal bovine serum (FBS, Gibco BRL), 100 μg/mL streptomycin, and 100 U/mL penicillin (Gibco BRL) in a humidified incubator under 5% CO2 and 20% O2 at 37 °C. To maintain the resistant phenotype, A549R cells were incubated with 5 μM cisplatin and cultured in drug-free medium for at least a week before use.\n(§3) The cytotoxicity of the ruthenium complexes and cisplatin were determined by an MTT assay. Briefly, cells were seeded into 96-well microtiter plates at 1 × 10^4 cells per well and grown overnight at 37 °C in a 5% CO2 incubator; then, different concentrations of the complexes in cell culture medium were added to the cultures. The plates were then incubated in an incubator for 48 h under the same conditions. The stock MTT dye solution (15 μL, 5 mg/mL) was added to each well. After 4 h of incubation, the cultures were removed and 150 μL of DMSO was added to each well. The optical density of each well was measured on a microplate spectrophotometer at a wavelength of 595 nm."}, "[6]": {"test_system": "A549", "assay": "MTT cytotoxicity assay, A549", "assay_type": "cell-based, human", "conditions": "A549, 48 h, mean ± SD of three experiments", "description": "as §1, §2, §3"}}}
{"substance": "Ru(phen)(bzq)(tbtfpip)(PF6) [Complex 4]", "values": [{"measurement": "log Po/w", "setting": "[1]", "value": "largest"}, {"measurement": "mitochondrial membrane potential (MMP)", "setting": "[2]", "value": "loss of MMP"}, {"measurement": "effect on A549R cell proliferation (xCELLigence)", "setting": "[3]; 0.5 μM", "value": "began to die after a short delay"}, {"measurement": "effect on A549R cell proliferation (xCELLigence)", "setting": "[3]; 2.0 μM", "value": "rapidly abolished cellular proliferation"}, {"measurement": "share of the compound taken up by A549R cells", "setting": "[4]", "value": "Approximately 8%"}, {"measurement": "IC50", "setting": "[5]", "value": "800 ± 100", "unit": "nM"}, {"measurement": "IC50", "setting": "[6]", "value": "1000 ± 200", "unit": "nM"}]}
